Laboratory results as given in ChEMBL document CHEMBL3045118, “Synthesis and biological activities of new Mannich bases of chlorokojic acid derivatives” (Med Chem Res, 2011).
Converted amounts (≈) assume the structure as drawn. The source made the active and inactive calls. No cut-off for these calls is given here.

Tests used:
Human alphaherpesvirus 1 [1] = experiment: Antiviral activity against Human herpesvirus 1 infected bovine MDBK cells assessed as concentration required to cause minimum inhibition of virus-induced cytopathic effect; format: functional
Proteus mirabilis [2] = experiment: Antibacterial activity against ESbetaL positive rimethoprim-sulfamethoxazole, cefepime, tazobactam-resistant Proteus mirabilis by microdilution method; format: functional
Human respirovirus 3 [3] = experiment: Antiviral activity against Human parainfluenza virus 3 infected African green monkey Vero cells assessed as concentration required to cause maximum inhibition of virus-induced cytopathic effect; format: functional
Staphylococcus aureus [4] = experiment: Antibacterial activity against oxacillin, gentamicin, aztreonam, trimethoprim-sulfamethoxazole-resistant Staphylococcus aureus by microdilution method; format: functional
Human respirovirus 3 [5] = experiment: Antiviral activity against Human parainfluenza virus 3 infected African green monkey Vero cells assessed as concentration required to cause minimum inhibition of virus-induced cytopathic effect; format: functional
Klebsiella pneumoniae [6] = experiment: Antibacterial activity against Klebsiella pneumoniae RSKK 574 by microdilution method; format: functional
Escherichia coli [7] = experiment: Antibacterial activity against ESbetaL positive trimethoprim-sulfamethoxazole, cefepime, tazobactam-resistant Escherichia coli isolate by microdilution method; format: functional
Bacillus subtilis [8] = experiment: Antibacterial activity against Bacillus subtilis ATCC 6633 by microdilution method; format: functional
Escherichia coli [9] = experiment: Antibacterial activity against Escherichia coli ATCC 35218 by microdilution method; format: functional
Acinetobacter baumannii [10] = experiment: Antibacterial activity against Acinetobacter baumannii RSKK 02026 by microdilution method; format: functional
Acinetobacter baumannii [11] = experiment: Antibacterial activity against trimethoprim-sulfamethoxazole, cefepime-resistant Acinetobacter baumannii by microdilution method; format: functional
Human alphaherpesvirus 1 [12] = experiment: Antiviral activity against Human herpesvirus 1 infected bovine MDBK cells assessed as concentration required to cause maximum inhibition of virus-induced cytopathic effect; format: functional
Proteus mirabilis [13] = experiment: Antibacterial activity against Proteus mirabilis ATCC 7002 by microdilution method; format: functional
Enterococcus faecalis [14] = experiment: Antibacterial activity against cephalosporins and beta-lactam-resistant Enterococcus faecalis by microdilution method; format: functional
Candida albicans = experiment: Antifungal activity against Candida albicans ATCC 10231 by microdilution method; format: functional
Staphylococcus aureus [15] = experiment: Antibacterial activity against Staphylococcus aureus ATCC 25923 by microdilution method; format: functional
Pseudomonas aeruginosa [16] = experiment: Antibacterial activity against trimethoprim-sulfamethoxazole, tazobactam-resistant Pseudomonas aeruginosa by microdilution method; format: functional
Klebsiella pneumoniae [17] = experiment: Antibacterial activity against ESbetaL positive trimethoprim-sulfamethoxazole, amoxicillin clavulonat, cefriaxon, cephepim, aztreonam-resistant Klebsiella pneumoniae by microdilution method; format: functional
Bacillus subtilis [18] = experiment: Antibacterial activity against ceftriaxon-resistant Bacillus subtilis by microdilution method; format: functional
[19] = Cytotoxicity against Bos taurus (bovine) MDBK cells assessed as maximum non-toxic concentration; format: cell-based; details: cattle, read-out: MNCC
Enterococcus faecalis [20] = experiment: Antibacterial activity against Enterococcus faecalis ATCC 29212 by microdilution method; format: functional
[21] = Cytotoxicity against Chlorocebus aethiops (African green monkey) Vero cells assessed as maximum non-toxic concentration; format: cell-based; details: chlorocebus sabaeus, read-out: MNCC
Candida parapsilosis = experiment: Antifungal activity against Candida parapsilosis ATCC 22019 by microdilution method; format: functional
Pseudomonas aeruginosa [22] = experiment: Antibacterial activity against Pseudomonas aeruginosa ATCC 10145 by microdilution method; format: functional

Row | Compound | Activity (Human alphaherpesvirus 1 [1]) [µg/mL] | MIC (Proteus mirabilis [2]) | Activity (Human respirovirus 3 [3]) [µg/mL] | MIC (Staphylococcus aureus [4]) [µg/mL] | Activity (Human respirovirus 3 [5]) [µg/mL] | MIC (Klebsiella pneumoniae [6]) | MIC (Escherichia coli [7]) | MIC (Bacillus subtilis [8]) | MIC (Escherichia coli [9]) | MIC (Acinetobacter baumannii [10]) | MIC (Acinetobacter baumannii [11]) | MIC (Proteus mirabilis [13]) | MIC (Enterococcus faecalis [14]) | MIC (Candida albicans) | MIC (Staphylococcus aureus [15]) [µg/mL] | MIC (Pseudomonas aeruginosa [16]) | MIC (Klebsiella pneumoniae [17]) | MIC (Bacillus subtilis [18]) | MIC (Enterococcus faecalis [20]) | MIC (Pseudomonas aeruginosa [22]) | other results
1 | O=c1cc(CCl)oc(CN2CCN(c3cccc(Cl)c3)CC2)c1O | 0.1 | 64 µg/mL | 0.8 | 128 (≈ 347 µM) | 0.025 | 32 µg/mL (≈ 86.7 µM) | 64 µg/mL | 16 µg/mL (≈ 43.3 µM) | 32 µg/mL (≈ 86.7 µM) | 32 µg/mL (≈ 86.7 µM) | 64 µg/mL (≈ 173 µM) | 32 µg/mL (≈ 86.7 µM) | 128 µg/mL (≈ 347 µM) | 16 µg/mL (≈ 43.3 µM) | 8 (≈ 21.7 µM) | 64 µg/mL | 64 µg/mL (≈ 173 µM) | 32 µg/mL (≈ 86.7 µM) | 8 µg/mL (≈ 21.7 µM) | 32 µg/mL (≈ 86.7 µM) | Activity (Human alphaherpesvirus 1 [12]): 0.8 µg/mL; MNTC [19]: 1.6 µg/mL; MNTC [21]: 0.8 µg/mL; MIC (Candida parapsilosis; Lodderomyces parapsilosis): 16 µg/mL (≈ 43.3 µM)
2 | O=c1cc(CCl)oc(CN2CCN(c3ccc(C(F)(F)F)cc3)CC2)c1O | 0.05 | 64 µg/mL | 0.4 | 64 (≈ 159 µM) | 0.025 | 32 µg/mL (≈ 79.4 µM) | 64 µg/mL | 8 µg/mL (≈ 19.9 µM) | 16 µg/mL (≈ 39.7 µM) | 16 µg/mL (≈ 39.7 µM) | 64 µg/mL (≈ 159 µM) | 16 µg/mL (≈ 39.7 µM) | 32 µg/mL (≈ 79.4 µM) | 8 µg/mL (≈ 19.9 µM) | 16 (≈ 39.7 µM) | 64 µg/mL | 64 µg/mL (≈ 159 µM) | 64 µg/mL (≈ 159 µM) | 8 µg/mL (≈ 19.9 µM) | 16 µg/mL (≈ 39.7 µM) | Activity (Human alphaherpesvirus 1 [12]): 0.8 µg/mL; MNTC [19]: 0.8 µg/mL; MNTC [21]: 0.4 µg/mL; MIC (Candida parapsilosis; Lodderomyces parapsilosis): 8 µg/mL (≈ 19.9 µM)
3 | O=c1cc(CCl)oc(CN2CCN(c3cccc(C(F)(F)F)c3)CC2)c1O | 0.05 | 64 µg/mL | 0.4 | 64 (≈ 159 µM) | 0.025 | 16 µg/mL (≈ 39.7 µM) | 64 µg/mL | 32 µg/mL (≈ 79.4 µM) | 16 µg/mL (≈ 39.7 µM) | 32 µg/mL (≈ 79.4 µM) | 64 µg/mL (≈ 159 µM) | 16 µg/mL (≈ 39.7 µM) | 32 µg/mL (≈ 79.4 µM) | 8 µg/mL (≈ 19.9 µM) | 32 (≈ 79.4 µM) | 64 µg/mL | 64 µg/mL (≈ 159 µM) | 64 µg/mL (≈ 159 µM) | 16 µg/mL (≈ 39.7 µM) | 16 µg/mL (≈ 39.7 µM) | Activity (Human alphaherpesvirus 1 [12]): 0.8 µg/mL; MNTC [19]: 0.8 µg/mL; MNTC [21]: 0.8 µg/mL; MIC (Candida parapsilosis; Lodderomyces parapsilosis): 8 µg/mL (≈ 19.9 µM)
4 | CN[C@H](CC(C)C)C(=O)N[C@H]1C(=O)N[C@@H](CC(N)=O)C(=O)N[C@H]2C(=O)N[C@H]3C(=O)N[C@H](C(=O)N[C@H](C(=O)O)c4cc(O)cc(O)c4-c4cc3ccc4O)[C@H](O)c3ccc(c(Cl)c3)Oc3cc2cc(c3O[C@@H]2O[C@H](CO)[C@@H](O)[C@H](O)[C@H]2O[C@H]2C[C@](C)(N)[C@H](O)[C@H](C)O2)Oc2ccc(cc2Cl)[C@H]1O [VANCOMYCIN] | – | inactive | – | – | – | inactive | inactive | inactive | inactive | inactive | inactive | inactive | inactive | inactive | 0.12 (≈ 0.0828 µM) | inactive | inactive | inactive | inactive | inactive | MIC (Candida parapsilosis): inactive
5 | COc1ccccc1N1CCN(Cc2oc(CCl)cc(=O)c2O)CC1 | 0.2 | 64 µg/mL | 0.2 | 128 (≈ 351 µM) | 0.05 | 32 µg/mL (≈ 87.7 µM) | 64 µg/mL | 16 µg/mL (≈ 43.9 µM) | 32 µg/mL (≈ 87.7 µM) | 32 µg/mL (≈ 87.7 µM) | 64 µg/mL (≈ 175 µM) | 32 µg/mL (≈ 87.7 µM) | 128 µg/mL (≈ 351 µM) | 8 µg/mL (≈ 21.9 µM) | 64 (≈ 175 µM) | 64 µg/mL | 64 µg/mL (≈ 175 µM) | 32 µg/mL (≈ 87.7 µM) | 64 µg/mL (≈ 175 µM) | 32 µg/mL (≈ 87.7 µM) | Activity (Human alphaherpesvirus 1 [12]): 0.8 µg/mL; MNTC [19]: 0.8 µg/mL; MNTC [21]: 1.6 µg/mL; MIC (Candida parapsilosis; Lodderomyces parapsilosis): 8 µg/mL (≈ 21.9 µM)
6 | C[C@H]1COc2c(N3CCN(C)CC3)c(F)cc3c(=O)c(C(=O)O)cn1c23.C[C@H]1COc2c(N3CCN(C)CC3)c(F)cc3c(=O)c(C(=O)O)cn1c23.O [LEVOFLOXACIN] | – | 1 µg/mL | – | 128 | – | < 0.12 µg/mL | – | inactive | – | 0.12 µg/mL | 64 µg/mL | < 0.12 µg/mL | 32 µg/mL | inactive | 0.25 | – | – | inactive | 0.5 µg/mL | – | MIC (Candida parapsilosis): inactive
7 | CCOC(=O)C1=C[C@@H](OC(CC)CC)[C@H](NC(C)=O)[C@@H](N)C1 [OSELTAMIVIR] | – | – | 1.6 | – | <0.012 | – | – | – | – | – | – | – | – | – | – | – | – | – | – | – | –
